Results from US20150164899A1, “INHIBITION OF ADAPTOR ASSOCIATED KINASE 1 FOR THE TREATMENT OF PAIN” (priority 2012, published 2015).
Read-outs that look alike come from different tables or passages of the source.

What was measured:
GST-Xa-hAAK1 = biological target: T1, GST-Xa-hAAK1 (Homo sapiens, UniProt Q2M2I8); assay: Caliper assay; format: biochemical; details: aryl ethers
T1 construct: made in house
Experimental: The assays were performed in U-bottom 384-well plates. The final assay volume was 30 μl prepared from 15 μl additions of enzyme and substrates (fluoresceinated peptide (5-FAM)-Aha-[…]-NH2 and ATP) and test compounds in assay buffer (10 mM Tris-HCL pH 7.4, 10 mM MgCl2, 0.01% Tween-20 and 1.0 mM DTT). The reactions were initiated by the combination of bacterially expressed, GST-Xa-hAAK1 with substrates and test compounds. The reactions were incubated at room temperature for 3 hours and terminated by adding 60 μl of 35 mM EDTA buffer to each sample. The reactions were analyzed on the Caliper LabChip 3000 (Caliper, Hopkinton, Mass.) by electrophoretic separation of the fluorescent substrate and phosphorylated product. […] The final concentration of reagents in the assays are ATP, 22 μM; (5-FAM)-Aha-[…]-NH2, 1.5 μM; GST-Xa-hAAK1, 3.5 nM; and DMSO, 1.6%. Dose response curves were generated to determine the concentration required inhibiting 50% of kinase activity (IC50). Compounds were dissolved at 10 mM in dimethylsulfoxide (DMSO) and evaluated at eleven concentrations. IC50 values were derived by non-linear regression analysis.

[1] = biological target: T2, AAK1 (full length human) in transfected HEK293F cells (Homo sapiens, UniProt Q2M2I8); assay: HEK281 cell-based assay (phospho-mu2 Western blot); details: read-out: CBA IC50
T2 construct: expressed in transfected cells; host or cells: HEK293F

[2] = tested on: formalin-induced paw flinching; assay: formalin paw test; format: in vivo; details: mice
Experimental: See example 5.4.1, above. The same test was used to confirm that the administration of an AAK1 inhibitor can also affect pain response.
Mice were tested for nociception with Automatic Nociception Analyzers (purchased from the Ozaki lab at University of California, San Diego). A metal band was placed around the left hind paw of each mouse with superglue 30 minutes prior to testing. After the 30-minute acclimation period, 20 μl of 5% formalin was subcutaneously injected in the dorsal surface of the left hind paw. Mice were individually housed in cylindrical chambers for 45 minutes. Fresh 5% formalin solution was prepared by diluting formaldehyde (Formalde-fresh 20%, Fisher Scientific, Fair Lawn, N.J.) with distilled water. Investigatory compounds were administered 30 minutes prior to formalin injection.
A computer software recorded flinches per minute, total flinches for Phase I (acute phase=first 8 minutes), and total flinches for Phase II (tonic phase between 20-40 minutes) through an electromagnetic field. See Yaksh T L, Ozaki G, McCumber D, Rathbun M, Svensson C, Malkmus S, Yaksh M C. An automated flinch detecting system for use in the formalin nociceptive bioassay. J Appl Physiol., 2001; 90:2386-402.
Various compounds of the invention were tested at different doses. Gabapentin and pregabalin were used as positive controls. Results are shown below in Table 2, wherein “*” means an effect equal to or greater than 50 percent of that of gabapentin at 200 mpk, “**” means an effect equal to or greater than 100 percent of that of gabapentin at 200 mpk, “sc” means subcutaneous administration, “ip” means in intraperitoneal administration, and “po” means oral administration.

[3] = HEK281 cell-based assay, pyrazolo[1,5-a]pyrimidine-based inhibitors

T1 sequence (Q2M2I8 whole entry): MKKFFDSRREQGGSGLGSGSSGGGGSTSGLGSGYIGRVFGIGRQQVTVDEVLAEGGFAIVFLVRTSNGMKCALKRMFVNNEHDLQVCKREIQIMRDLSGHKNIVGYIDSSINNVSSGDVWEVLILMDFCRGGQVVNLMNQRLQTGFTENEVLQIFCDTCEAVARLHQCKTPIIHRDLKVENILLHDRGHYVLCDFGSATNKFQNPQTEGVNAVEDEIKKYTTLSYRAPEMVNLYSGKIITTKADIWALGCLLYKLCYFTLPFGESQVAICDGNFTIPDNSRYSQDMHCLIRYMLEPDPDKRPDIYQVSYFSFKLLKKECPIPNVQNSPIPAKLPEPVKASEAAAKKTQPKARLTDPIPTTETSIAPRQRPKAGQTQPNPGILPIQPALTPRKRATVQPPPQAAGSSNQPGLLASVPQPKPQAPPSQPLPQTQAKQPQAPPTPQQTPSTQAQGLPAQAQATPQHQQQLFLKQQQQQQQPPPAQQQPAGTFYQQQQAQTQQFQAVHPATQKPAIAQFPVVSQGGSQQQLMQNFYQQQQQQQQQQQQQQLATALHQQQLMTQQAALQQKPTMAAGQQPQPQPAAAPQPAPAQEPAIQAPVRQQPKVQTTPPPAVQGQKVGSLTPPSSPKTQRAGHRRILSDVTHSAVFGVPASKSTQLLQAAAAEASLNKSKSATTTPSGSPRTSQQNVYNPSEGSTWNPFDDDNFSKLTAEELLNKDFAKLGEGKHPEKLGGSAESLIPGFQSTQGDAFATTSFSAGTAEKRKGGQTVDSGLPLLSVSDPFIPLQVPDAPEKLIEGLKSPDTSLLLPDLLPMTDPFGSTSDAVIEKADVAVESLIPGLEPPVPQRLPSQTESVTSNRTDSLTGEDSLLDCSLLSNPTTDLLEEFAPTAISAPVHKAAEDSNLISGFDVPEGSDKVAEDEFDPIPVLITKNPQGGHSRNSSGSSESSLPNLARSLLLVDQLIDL
T2 sequence (Q2M2I8 1-863 isoform Q2M2I8-2): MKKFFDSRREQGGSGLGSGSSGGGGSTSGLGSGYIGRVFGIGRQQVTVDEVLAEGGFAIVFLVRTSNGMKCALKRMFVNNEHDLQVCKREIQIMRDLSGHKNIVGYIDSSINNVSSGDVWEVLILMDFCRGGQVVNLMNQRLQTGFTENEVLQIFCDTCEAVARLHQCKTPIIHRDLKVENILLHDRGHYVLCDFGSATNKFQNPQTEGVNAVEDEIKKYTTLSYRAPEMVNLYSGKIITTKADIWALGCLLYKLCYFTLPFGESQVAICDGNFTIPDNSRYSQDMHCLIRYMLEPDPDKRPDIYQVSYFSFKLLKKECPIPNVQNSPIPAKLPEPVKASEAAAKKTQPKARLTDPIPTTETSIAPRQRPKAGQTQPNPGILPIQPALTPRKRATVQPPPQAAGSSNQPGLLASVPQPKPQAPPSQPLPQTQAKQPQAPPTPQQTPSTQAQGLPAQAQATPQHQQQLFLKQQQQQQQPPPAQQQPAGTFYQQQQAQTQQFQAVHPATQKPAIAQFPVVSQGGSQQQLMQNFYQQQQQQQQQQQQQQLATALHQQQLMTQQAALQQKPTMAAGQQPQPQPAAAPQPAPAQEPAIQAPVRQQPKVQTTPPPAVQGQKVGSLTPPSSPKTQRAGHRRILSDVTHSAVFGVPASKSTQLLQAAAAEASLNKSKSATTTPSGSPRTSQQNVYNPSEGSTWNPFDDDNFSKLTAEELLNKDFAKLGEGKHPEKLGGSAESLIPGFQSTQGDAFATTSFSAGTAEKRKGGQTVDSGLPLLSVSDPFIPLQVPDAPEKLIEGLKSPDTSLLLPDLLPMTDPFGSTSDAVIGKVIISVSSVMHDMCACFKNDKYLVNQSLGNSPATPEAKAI

CC(C)C[C@H](N)COc1ccc2c(c1)OC(C1CC1)c1cnccc1-2 (some centres unmarked) [drawing 37]
IC50 (GST-Xa-hAAK1; class symbols): 1 to 10 nM
IC50 ([1]; aryl ethers, numeric values): 18 nM

CC(C)C[C@H](N)COc1ccc2c(c1)OC(C)c1cnccc1-2 (some centres unmarked) [drawing 31]
IC50 (GST-Xa-hAAK1; class symbols): 10 to 100 nM
IC50 ([1]; aryl ethers, numeric values): 25 nM

CCC1Oc2cc(OC[C@@H](N)CC(C)C)ccc2-c2ccncc21 (some centres unmarked)
IC50 (GST-Xa-hAAK1; numeric values): 12 nM
IC50 ([1]; aryl ethers, numeric values): 56 nM

CC(C)C[C@@H](N)COc1ccc2c(c1)OCc1cnccc1-2 [drawing 25]
IC50 (GST-Xa-hAAK1; class symbols): 10 to 100 nM

COc1ccccc1-c1cnn2ccc(NC[C@@H]3CCCN3C(=O)OC(C)(C)C)nc12 [(S)-tert-butyl 2-(((3-(2-methoxyphenyl)pyrazolo[1,5-a]pyrimidin-5-yl)amino)methyl)pyrrolidine-1-carboxylate]
Effect ([2]; 10 mpk sc): * (an effect equal to or greater than 50% of that of gabapentin at 200 mpk)
Effect ([2]; 60 mpk sc): * (an effect equal to or greater than 50% of that of gabapentin at 200 mpk)
IC50 [1, 3]: ≤ 10 nM

CC(C)C[C@H](N)COc1ccc2c(c1)OCc1cnc(N)cc1-2
IC50 (GST-Xa-hAAK1; class symbols): 1 to 10 nM
IC50 ([1]; aryl ethers, class symbols): 1 to 10 nM

CC(C)C[C@H](N)COc1cc2c(cc1Br)-c1ccncc1CO2
IC50 (GST-Xa-hAAK1; numeric values): 0.86 nM
IC50 ([1]; aryl ethers, numeric values): 2.5 nM

N[C@@H](COc1ccc2c(c1)OCc1cnccc1-2)Cc1ccccc1
IC50 (GST-Xa-hAAK1; numeric values): 293 nM

CC(C)C[C@H](N)COc1ccc2c(c1)OC(C1CC1)c1cnccc1-2 (some centres unmarked) [drawing 36]
IC50 (GST-Xa-hAAK1; class symbols): 100 to 1000 nM

NCc1ccc(-c2cnc3ccc(NCCCc4ccccc4)nn23)cc1 [3-(4-(aminomethyl)phenyl)-N-(3-phenylpropyl)imidazo[1,2-b]pyridazin-6-amine]
Effect ([2]; 30 mpk ip): ** (an effect equal to or greater than 100% of that of gabapentin at 200 mpk)

CC(C)C[C@H](CN)CC(=O)O [Pregabalin, reference compound]
Effect ([2]; 50 mpk sc): * (an effect equal to or greater than 50% of that of gabapentin at 200 mpk)

CC(C)(C)OC(=O)N1CCC[C@H]1CNc1ccc2ncc(-c3ccc(CN)cc3)n2n1 [(S)-tert-butyl 2-(((3-(4-(aminomethyl)phenyl)imidazo[1,2-b]pyridazin-6-yl)amino)methyl)pyrrolidine-1-carboxylate]
Effect ([2]; 60 mpk sc): ** (an effect equal to or greater than 100% of that of gabapentin at 200 mpk)

CCc1cc2c(cc1OC[C@@H](N)CC(C)C)OC(CC)c1cnccc1-2 (some centres unmarked)
IC50 (GST-Xa-hAAK1; class symbols): 10 to 100 nM
IC50 ([1]; aryl ethers, numeric values): 18 nM

CN(CCNc1ccc2ncc(-c3ccc(C(N)=O)cc3)n2n1)C(=O)OC(C)(C)C [tert-butyl (2-((3-(4-carbamoylphenyl)imidazo[1,2-b]pyridazin-6-yl)amino)ethyl)(methyl)carbamate]
Effect ([2]; 60 mpk sc): ** (an effect equal to or greater than 100% of that of gabapentin at 200 mpk)
Effect ([2]; 100 mpk po): ** (an effect equal to or greater than 100% of that of gabapentin at 200 mpk)

COc1ccccc1-c1cnn2ccc(N3CCN(C(=O)OC(C)C)CC3)nc12 [isopropyl 4-(3-(2-methoxyphenyl)pyrazolo[1,5-a]pyrimidin-5-yl)piperazine-1-carboxylate]
Effect ([2]; 30 mpk sc): ** (an effect equal to or greater than 100% of that of gabapentin at 200 mpk)

CC(C)C[C@@H](N)COc1ccc2c(c1)OC(C)c1cnccc1-2 (some centres unmarked)
IC50 (GST-Xa-hAAK1; class symbols): 10 to 100 nM
IC50 ([1]; aryl ethers, numeric values): > 300 nM

CC(C)(C)OC(=O)N1CCC[C@H]1CNc1ccc2ncc(Br)n2n1 [(S)-tert-butyl 2-(((3-bromoimidazo[1,2-b]pyridazin-6-yl)amino)methyl)pyrrolidine-1-carboxylate]
Effect ([2]; 30 mpk sc): ** (an effect equal to or greater than 100% of that of gabapentin at 200 mpk)
Effect ([2]; 60 mpk sc): ** (an effect equal to or greater than 100% of that of gabapentin at 200 mpk)

CC(C)(C)OCCNc1ccc2ncc(-c3ccc(CN)cc3)n2n1 [3-(4-(aminomethyl)phenyl)-N-(2-(tert-butoxy)ethyl)imidazo[1,2-b]pyridazin-6-amine]
Effect ([2]; 60 mpk sc): ** (an effect equal to or greater than 100% of that of gabapentin at 200 mpk)

CC(C)(C)OC(=O)N1CCC[C@H]1CNc1ccn2ncc(-c3ccncc3)c2n1 [(S)-tert-butyl 2-(((3-(pyridin-4-yl)pyrazolo[1,5-a]pyrimidin-5-yl)amino)methyl)pyrrolidine-1-carboxylate]
Effect ([2]; 30 mpk sc): ** (an effect equal to or greater than 100% of that of gabapentin at 200 mpk)
IC50 [1, 3]: ≤ 10 nM

NCC1(CC(=O)O)CCCCC1 [Gabapentin, reference compound]
Effect ([2]; 50 mpk sc): * (an effect equal to or greater than 50% of that of gabapentin at 200 mpk)
Effect ([2]; 200 mpk sc): ** (an effect equal to or greater than 100% of that of gabapentin at 200 mpk)

COc1ccccc1-c1cnc2ccc(N3CCN(C(=O)OC(C)C)CC3)nn12 [isopropyl 4-(3-(2-methoxyphenyl)imidazo[1,2-b]pyridazin-6-yl)piperazine-1-carboxylate]
Effect ([2]; 30 mpk sc): ** (an effect equal to or greater than 100% of that of gabapentin at 200 mpk)
Effect ([2]; 60 mpk sc): ** (an effect equal to or greater than 100% of that of gabapentin at 200 mpk)

CCCCNc1ccc2ncc(-c3ccc(-c4nnn[nH]4)cc3)n2n1 [3-(4-(1H-tetrazol-5-yl)phenyl)-N-butylimidazo[1,2-b]pyridazin-6-amine]
Effect ([2]; 60 mpk ip): ** (an effect equal to or greater than 100% of that of gabapentin at 200 mpk)

CC(C)C[C@H](N)COc1ccc2c(c1)OC(C)c1cnccc1-2 (some centres unmarked) [drawing 30]
IC50 (GST-Xa-hAAK1; numeric values): 4.9 nM

CC(C)(C)OCCCNc1ccc2ncc(-c3ccc(CN)cc3)n2n1 [3-(4-(aminomethyl)phenyl)-N-(3-(tert-butoxy)propyl)imidazo[1,2-b]pyridazin-6-amine]
Effect ([2]; 60 mpk sc): ** (an effect equal to or greater than 100% of that of gabapentin at 200 mpk)
